# Results from paper PMC7262913, “Substrate recognition by a bifunctional GH30‐7 xylanase B from Talaromyces cellulolyticus” (FEBS Open Bio, 2020).
# Target: T1, TcXyn30B (Talaromyces pinophilus, UniProt A0A510NXC4)
# T1 construct: gene TCE0_018f06110; no His tag; vector residues AYVEF at N-terminus (numbered 18-22); secreted from Pichia pastoris GS115, N-glycosylated, 62182 Da; one molecule per asymmetric unit
# T1 sequence (A0A510NXC4 23-474): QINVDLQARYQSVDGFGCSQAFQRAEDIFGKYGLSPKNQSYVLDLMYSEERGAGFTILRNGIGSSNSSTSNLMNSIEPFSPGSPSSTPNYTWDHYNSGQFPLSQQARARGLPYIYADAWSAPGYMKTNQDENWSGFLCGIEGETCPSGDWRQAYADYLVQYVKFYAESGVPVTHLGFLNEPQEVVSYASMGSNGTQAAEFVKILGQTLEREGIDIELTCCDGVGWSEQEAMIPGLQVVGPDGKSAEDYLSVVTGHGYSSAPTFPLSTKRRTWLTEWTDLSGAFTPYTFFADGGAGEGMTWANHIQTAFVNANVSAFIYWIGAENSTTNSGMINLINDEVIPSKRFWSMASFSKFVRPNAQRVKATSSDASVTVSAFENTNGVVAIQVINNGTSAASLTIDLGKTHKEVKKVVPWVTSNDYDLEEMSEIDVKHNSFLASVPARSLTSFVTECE
# Test: X-ray crystallography (co-crystal, […] Å)
# Assay type: binding
# Details: co-crystallised with aldouronic acid mixture (Megazyme); pH 7.3, MgCl2; subsites -1, -2a and -2b of active site
smiles,measurement,value
"CO[C@H]1[C@H](O)[C@@H](O)[C@@H](O[C@H]2[C@H](O[C@@H]3COC(O)[C@H](O)[C@H]3O)OC[C@@H](O)[C@@H]2O)O[C@@H]1C(=O)O (stereo partly drawn) [U^4m2X, 2^2‐(4‐O‐methyl‐α‐D‐glucuronyl)‐xylobiose]","X-ray crystallography (co-crystal, 1.65 Å)",A clear density map for U^4m2X is observed in the active cleft
